Experimental data published in patent US7560473B2 (Institute of Pharmacology and Toxicology Academy of …, priority 2001, dated 2009).

Key:
[1] = system: spontaneously hypertensive rats; assay: Acute antihypertensive effects in conscious spontaneously hypertensive rats; assay type: in vivo; conditions: for SBP at 1 h after administration / heart rates at 1 h / SBP at 3 h after administration / heart rates at 3 h / SBP at 5 h after administration / heart rates at 5 h / SBP at 9 h after administration / heart rates at 9 h / SBP at 12 h after administration / heart rates at 12 h / SBP at 24 h after administration / heart rates at 24 h / SBP base value / heart rates base value: po mg/kg: compound 1 3, pinacidil 3, nifedipine 10, bisoprolol 60, captopril 40, means ± SD, 9-13 rats; for heart rates at 1 h / heart rates at 3 h / heart rates at 5 h / heart rates at 9 h / heart rates at 12 h / heart rates at 24 h / heart rates base value: in bpm (unit assumed); for SBP base value / heart rates base value: base value before administration
Excerpt: Biological activity experiment 2. The acute antihypertensive effects of compound 1 in conscious spontaneously hypertensive rats.
The methods of biological activity experiment 2 were described by Long Chao-Liang et al: Long Chao-Liang, Wang Hai, Xiao Wen-Bin. Effects of pinacidil on, hypertensive vascular remodeling. Chin J Pharmacol Toxicol 1997; 11(1):42-46.

[2] = target: T1, ATP-sensitive potassium channels in vascular smooth muscles (Rattus norvegicus, UniProt Q63563); assay: Association and dissociation kinetics of [^3H]glibenclamide binding in aortic rings; parameters: species or system Wistar rat; conditions: drug M: compound 1 10^−4, pinacidil 10^−4, ATP 10^−2, ADP 10^−3, UDP 5 × 10^−3, Ade 10^−3; for Dissociation kinetics k2 of [^3H]glibenclamide binding / Association kinetics k1 of [^3H]glibenclamide binding / Association kinetics kobs of [^3H]glibenclamide binding / Association kinetics kA of [^3H]glibenclamide binding: 25° C.; for Dissociation kinetics k2 of [^3H]glibenclamide binding: control 0.72 ± 0.11; for Dissociation kinetics Kd of [^3H]glibenclamide binding in presence of the drug: Kd of the radioligand, not of the drug, control 0.55 ± 0.14; for Association kinetics k1 of [^3H]glibenclamide binding / Association kinetics kobs of [^3H]glibenclamide binding / Association kinetics kA of [^3H]glibenclamide binding: [^3H]-glibenclamide 3 nM; for Association kinetics k1 of [^3H]glibenclamide binding: control 1.31 ± 0.14; for Association kinetics kobs of [^3H]glibenclamide binding: control 4.65 ± 0.37, means ± SD, n = 4~10; for Association kinetics kA of [^3H]glibenclamide binding: control 181.90 ± 46.90
T1 construct: The aorta was cut into about 3-5 mm arterial rings and the vascular endothelium was scraped off; from tissue; host or cells: endothelium-removed aortic rings of male Wistar rats
Excerpt: Biological activity experiment 4. Allosteric regulation of novel compounds on ATP-sensitive potassium channels in vascular smooth muscles.
To study the allosteric regulation of compound 1 on ATP-sensitive potassium channels in vascular smooth muscles, the radio-labled-ligand was used in the biological activity experiment 4.
1. The allosteric regulation of compound 1 on the binding sites for the selective KATP blocker glibenclamide in vascular smooth muscles was studied as follows: After decapitated, the male Wistar rat (340±20 g) was immediately incised open the thoracic cavity. The aorta was dissected and immersed in the 4° C. buffer containing 10 mM HEPES to wash off the blood, then carefully extirpated the fat, peripheral connective tissues and thrombus. The aorta was cut into about 3-5 mm arterial rings and the vascular endothelium was scraped off with wet tampon. The arterial rings were blotted, weighted and transferred into the tubes containing proper amount of ice colded physiological saline buffer. […] At 5,10,15,20,30,60,90 and 120 min after incubation, 9 mL ice colded Tris buffer (50 mM) was added to terminate the reaction. After washing off the free and bound [^3H]-glibenclamide, the aorta was blotted, transferred to a scintillator, added 50 uL 30% H2O2 and reacted for 2 h at 80° C. After cooling, 2.5 mL ethyl glycol and 5 mL 1% B-BPD xylene were added in sequence, kept stationary for 8 h and measured under a scintillometer for cpm value. The resulting data were fit into a regression line with In[BEQ/(BEQ-Bt)]vs.t and the parameters for association kinetics were obtained. In the disassociation kinetics experiments, the aorta treated as described above and [^3H]-glibenclamide were incubated for 60 min at 25° C., and then 30 uM glibenclamide was added. 0,5,15,30,60,90 and 120 min later, the cpm values for the complex of [^3H]-glibenclamide and KATP were measured. The resulting data were fit into a regression line with In(B/BEQ)]vs.t and the parameters for disassociation kinetics were obtained. 2. The allosteric regulation of compound 1 on the binding sites for the selective KATP activator P1075 in vascular smooth muscles was studied with the method as described above, but some conditions should be changed as follows: the incubation temperature was 37° C. instead of 25° C.;P1075 was used instead of glibenclamide; In the association kinetics experiments, the time points for sampling were 5,10,15,20,30,45,60 and 90 min, while in the disassociation kinetics experiments, that were 1,3,5,10,20,30,45 and 60 min. Biological activity experiment 5. The effects of compound 1 on the specific binding of high selective activator [^3H]P1075 with ATP-sensitive potassium channels in vascular smooth muscles.

[3] = target: T1, ATP-sensitive potassium channels in vascular smooth muscles; assay: Inhibition of specific binding of [^3H]P1075 in endothelium-removed rat aorta; parameters: species or system Wistar rat; conditions: for IC50 / Ki: [^3H] P1075 5 nmol L^−1, 90 minutes at 37° C., endothelium-removed rat aorta; for Ki: read-out: pKi for inhibition of specific binding of [^3H]P1075 (converted)
[4] = system: rats anesthetized with pentobarbital sodium; assay: Antagonism of glibenclamide on the cardiovascular effects in anesthetized rats; assay type: in vivo, Wistar rats; conditions: for +dp/dtmax / DBP / HR / LVSP / MBP / SB / Vpm / −dp/dtmax: iv mg/kg: pinacidil 1.0, nifedipine 1.0, compound 1 0.5, means ± SE; for antagonism of the cardiovascular effects by glibenclamide (in words): glibenclamide 20 mg/kg iv pretreatment
Experimental: The methods of biological activity experiment 1 were as follows: Male Wistar rats, weighing 280±30 g were purchased from the experimental animal center of Academy of Military Medical Sciences. Rats were anesthetized with pentobarbital sodium (45 mg/kg) by peritoneal injection. A PE50 polyethylene catheter was inserted into the left ventricle through right carotid artery for cardiac function measurement with a pressure energe exchanger, wherein the signal is put into a SMUP-PC biosignal processing system. Cardiac functional parameters such as HR, LVSP, +dp/dtmax, −dp/dtmax and Vpm were recorded. Another two PE50 polyethylene catheters were inserted into the right femoral artery and vein respectively for blood pressure measurement wherein the artery cathether was linked to a four-channel physiology recorder (RM-6000) through a MPU-0.5A Type pressure energe exchanger, which recorded SBP, DBP and MBP, while the vein catheter was used for compound administration. The methods were described by Liu Wei et al: Liu Wei, Wang Hai, Xiao Wen-Bin.
The methods of Biological activity experiment 3 were the same as those described in the biological activity experiment 1.

[5] = A: after administration (30 min after pinacidil, 10 min nifedipine, 15 min compound 1), glibenclamide 20 iv pretreatment
[6] = B: before administration, glibenclamide 20 iv pretreatment ten minutes

T1 sequence (Q63563 1-1545 isoform Q63563-2): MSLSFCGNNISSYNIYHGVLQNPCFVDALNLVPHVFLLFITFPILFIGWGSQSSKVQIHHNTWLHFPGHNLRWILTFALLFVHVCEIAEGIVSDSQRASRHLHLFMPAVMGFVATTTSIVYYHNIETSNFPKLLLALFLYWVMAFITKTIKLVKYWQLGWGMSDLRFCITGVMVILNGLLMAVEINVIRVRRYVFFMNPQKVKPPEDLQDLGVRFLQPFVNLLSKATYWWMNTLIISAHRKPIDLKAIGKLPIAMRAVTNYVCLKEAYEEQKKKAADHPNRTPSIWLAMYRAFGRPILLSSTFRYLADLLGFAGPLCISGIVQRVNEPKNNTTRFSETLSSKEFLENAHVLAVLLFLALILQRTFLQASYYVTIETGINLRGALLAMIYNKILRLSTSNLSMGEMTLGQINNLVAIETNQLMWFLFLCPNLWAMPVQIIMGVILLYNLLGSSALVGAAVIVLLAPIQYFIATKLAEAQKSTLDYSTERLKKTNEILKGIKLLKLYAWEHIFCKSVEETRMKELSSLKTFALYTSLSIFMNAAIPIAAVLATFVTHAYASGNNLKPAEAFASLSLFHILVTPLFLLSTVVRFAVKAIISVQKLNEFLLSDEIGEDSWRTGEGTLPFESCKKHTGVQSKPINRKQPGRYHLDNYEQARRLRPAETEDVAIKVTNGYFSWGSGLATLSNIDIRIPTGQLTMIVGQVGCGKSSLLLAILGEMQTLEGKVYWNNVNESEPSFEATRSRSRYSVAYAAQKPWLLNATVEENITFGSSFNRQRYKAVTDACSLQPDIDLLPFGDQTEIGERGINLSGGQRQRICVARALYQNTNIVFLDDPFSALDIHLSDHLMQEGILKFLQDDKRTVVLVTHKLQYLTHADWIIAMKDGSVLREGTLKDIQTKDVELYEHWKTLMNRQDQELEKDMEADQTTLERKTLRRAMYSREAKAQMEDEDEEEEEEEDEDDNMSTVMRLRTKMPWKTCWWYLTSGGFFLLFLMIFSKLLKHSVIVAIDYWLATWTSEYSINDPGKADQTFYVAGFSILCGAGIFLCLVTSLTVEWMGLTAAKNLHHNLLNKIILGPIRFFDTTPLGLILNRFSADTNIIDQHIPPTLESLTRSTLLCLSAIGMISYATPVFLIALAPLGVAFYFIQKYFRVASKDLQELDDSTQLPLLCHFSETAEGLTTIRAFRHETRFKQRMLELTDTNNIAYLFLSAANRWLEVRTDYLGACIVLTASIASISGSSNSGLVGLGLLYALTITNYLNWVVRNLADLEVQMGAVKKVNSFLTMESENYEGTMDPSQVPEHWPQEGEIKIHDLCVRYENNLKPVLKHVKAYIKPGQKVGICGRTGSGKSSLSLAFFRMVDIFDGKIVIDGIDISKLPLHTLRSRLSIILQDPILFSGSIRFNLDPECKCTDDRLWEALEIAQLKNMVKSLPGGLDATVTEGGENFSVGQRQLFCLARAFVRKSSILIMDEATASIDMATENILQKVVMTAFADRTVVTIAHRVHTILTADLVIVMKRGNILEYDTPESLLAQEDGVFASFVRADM
T1 sequence (Q63664 whole entry partner): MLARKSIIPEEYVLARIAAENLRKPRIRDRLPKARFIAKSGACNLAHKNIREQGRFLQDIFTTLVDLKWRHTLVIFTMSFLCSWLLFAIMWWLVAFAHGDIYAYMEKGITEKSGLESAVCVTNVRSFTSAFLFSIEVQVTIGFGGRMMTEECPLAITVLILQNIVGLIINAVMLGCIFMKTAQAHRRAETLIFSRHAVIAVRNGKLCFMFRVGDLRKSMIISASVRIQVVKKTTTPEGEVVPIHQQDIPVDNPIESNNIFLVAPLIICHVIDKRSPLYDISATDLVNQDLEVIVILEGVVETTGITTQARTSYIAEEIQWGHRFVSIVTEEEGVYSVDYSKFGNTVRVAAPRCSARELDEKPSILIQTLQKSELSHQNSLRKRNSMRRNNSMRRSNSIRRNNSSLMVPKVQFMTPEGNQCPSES

## CC(C)NC(C)(C)C(C)C [compound 1, N-(1-methylethyl)-2,3-dimethyl-2-butylamine]
[1]
  SBP at 1 h after administration: 227 ± 12 mmHg
  heart rates at 1 h: 414 ± 27
  SBP at 3 h after administration: 218 ± 7 mmHg
  heart rates at 3 h: 412 ± 27
  SBP at 5 h after administration: 215 ± 15 mmHg
  heart rates at 5 h: 408 ± 25
  SBP at 9 h after administration: 229 ± 8 mmHg
  heart rates at 9 h: 407 ± 21
  SBP at 12 h after administration: 243 ± 7 mmHg
  heart rates at 12 h: 413 ± 15
  SBP at 24 h after administration: 244 ± 9 mmHg
  heart rates at 24 h: 417 ± 12
  SBP base value: 246 ± 11 mmHg
  heart rates base value: 419 ± 20
[1]; oral administration, spontaneously hypertensive rats
  duration of antihypertensive action: 9 h
[2]
  Dissociation kinetics k2 of [^3H]glibenclamide binding: 1.02 ± 0.14 ×10^2 nM^−1 · min^−1
  Dissociation kinetics Kd of [^3H]glibenclamide binding in presence of the drug: 1.64 ± 0.69 nM
  Association kinetics k1 of [^3H]glibenclamide binding: 0.62 ± 0.25 ×10^−2nM^−1 · min^−1
  Association kinetics kobs of [^3H]glibenclamide binding: 2.90 ± 0.74 ×10^−2nM^−1 · min^−1
  Association kinetics kA of [^3H]glibenclamide binding: 61.04 ± 25.89 ×10^−2nM^−1 · min^−1
[3]
  IC50: 355 ± 53.7 nM
  Ki: 355 nM
[3]; relative to P1075
  competitive inhibition of [^3H] P1075 binding, times weaker than that of P1075: 39 times
[3]; relative to glibenclamide
  competitive inhibition of [^3H] P1075 binding, times stronger than that of glibenclamide: 166 times
[3]; relative to pinacidil
  competitive inhibition of [^3H] P1075 binding, times weaker than that of pinacidil: 1.8 times
[4]; [5]
  +dp/dtmax: 672 ± 36 kPa/a
  DBP: 77 ± 9 mmHg
  HR: 357 ± 18 bpm
  LVSP: 133 ± 6 mmHg
  MBP: 86 ± 9 mmHg
  SB: 105 ± 10 mmHg
  Vpm: 2.7 ± 03 /a
  −dp/dtmax: 507 ± 39 kPa/a
[4]; [6]
  +dp/dtmax: 978 ± 54 kPa/a
  DBP: 98 ± 7 mmHg
  HR: 394 ± 13 bpm
  LVSP: 180 ± 10 mmHg
  MBP: 110 ± 7 mmHg
  SB: 134 ± 8 mmHg
  Vpm: 3.3 ± 0.2 /a
  −dp/dtmax: 819 ± 56 kPa/a
[4]
  antagonism of the cardiovascular effects by glibenclamide (in words): could be antagnized by glibenclamide

## CC(N/C(=N\C#N)Nc1ccncc1)C(C)(C)C (centres unmarked) [pinacidil]
[1]
  SBP at 1 h after administration: 208 ± 5 mmHg
  heart rates at 1 h: 421 ± 17
  SBP at 3 h after administration: 236 ± 5 mmHg
  heart rates at 3 h: 400 ± 15
  SBP at 5 h after administration: 241 ± 4 mmHg
  heart rates at 5 h: 354 ± 14
  SBP at 9 h after administration: 242 ± 5 mmHg
  heart rates at 9 h: 365 ± 16
  SBP at 12 h after administration: 244 ± 5 mmHg
  heart rates at 12 h: 352 ± 20
  SBP at 24 h after administration: 244 ± 5 mmHg
  heart rates at 24 h: 365 ± 15
  SBP base value: 242 ± 5 mmHg
  heart rates base value: 351 ± 19
[2]
  Dissociation kinetics k2 of [^3H]glibenclamide binding: 1.15 ± 0.27 ×10^2 nM^−1 · min^−1
  Dissociation kinetics Kd of [^3H]glibenclamide binding in presence of the drug: 2.95 ± 0.95 nM
  Association kinetics k1 of [^3H]glibenclamide binding: 0.39 ± 0.24 ×10^−2nM^−1 · min^−1
  Association kinetics kobs of [^3H]glibenclamide binding: 2.32 ± 0.67 ×10^−2nM^−1 · min^−1
  Association kinetics kA of [^3H]glibenclamide binding: 33.91 ± 22.43 ×10^−2nM^−1 · min^−1
[3]
  IC50: 200 ± 43.6 nM
  Ki: 200 nM
[4]; [5]
  +dp/dtmax: 571 ± 33 kPa/a
  DBP: 67 ± 6 mmHg
  HR: 317 ± 25 bpm
  LVSP: 111 ± 9 mmHg
  MBP: 76 ± 7 mmHg
  SB: 91 ± 8 mmHg
  Vpm: 4.1 ± 0.5 /a
  −dp/dtmax: 447 ± 73 kPa/a
[4]; [6]
  +dp/dtmax: 673 ± 28 kPa/a
  DBP: 92 ± 5 mmHg
  HR: 353 ± 17 bpm
  LVSP: 124 ± 6 mmHg
  MBP: 104 ± 5 mmHg
  SB: 128 ± 5 mmHg
  Vpm: 4.3 ± 0.5 /a
  −dp/dtmax: 536 ± 42 kPa/a
[4]
  antagonism of the cardiovascular effects by glibenclamide (in words): could aslo block
